Three molecules from patent EP0533933A1, “BISHETEROCYCLIC COMPOUND” (YAMANOUCHI PHARMACEUTICAL CO. LTD., priority 1990, dated 1992) can be followed below.

One series has as its system KK mice. Kind of series: Hypoglycemic activity (blood glucose decrease in KK mice, glucose oxidase method). The series is classed as in vivo. Conditions: percent decrease of blood glucose from the level prior to administration; dosage level of 100 mg; per os daily for 4 consecutive days, blood glucose on day 5; male KK mice on high caloric diet. On the procedure:
Male KK mice, 4-5 weeks old, were obtained from Japan Clea. The animals were individually put on a high caloric diet (CMF, Oriental Yeast) and the individuals weighing about 40 g were selectively used.
For determination of blood glucose, 10 µl of blood was withdrawn from the caudal vein, deproteinized with 100 µl of 0.33 N perchloric acid and centrifuged. The glucose in the supernatant was assayed by the glucose oxidase method. Groups of 6 animals showing 200 mg/dℓ or more of blood glucose were submitted to the experiment.
The test compound was suspended in 0.5% methylcellulose and administered daily per os for 4 consecutive days. Before administration and on day 5, the blood was withdrawn from the caudal vein of each animal and the blood glucose was determined by the above method.
Hypoglycemic potency was expressed in terms of percent decrease from the glucose level prior to administration of the test compound and the results were statistically evaluated at the significance level of p=0.05. * = p<0.05 ** = p<0.01 *** = p<0.001 As a result, a significant hypoglycemic effect was attained within the dose range of 10 to 300 mg/kg.

Another series concerns Fischer rats. Kind of series: Oral toxicity in Fischer rats, 3 consecutive days. The series is classed as in vivo. The following applies: Fischer rats (2 animals per sex), orally, 1,000 mg/kg for 3 consecutive days.

As a reminder, the % Inhibition is the drop in the measured response relative to a control, in per cent. The low end stands for a response near the control, the high end for a response far below the control. For `O=C1NC(=O)C(Cc2ccc(OCCCCCCCOc3ccc(CC4SC(=O)NC4=O)cc3)cc2)S1` (stereo not shown) [Example 14, 1,7-bis[4-[(2,4-dioxo-5-thiazolidinyl)methyl]phenoxy]heptane], the “% Inhibition” value in the series on KK mice amounted to 37%. With `O=C1NC(=O)C(Cc2ccc(Cc3ccc(CC4SC(=O)NC4=O)cc3)cc2)S1` (stereo not shown) [Example 15, 4,4'-bis[(2,4-dioxo-5-thiazolidinyl)methyl]diphenylmethane], in the series with KK mice, the “% Inhibition” value is given as 47%. Besides, the “abnormality after oral administration” value in the series with Fischer rats was “no abnormality was observed”. Turning to `O=C1NC(=O)C(Cc2ccc(OC/C=C/COc3ccc(CC4SC(=O)NC4=O)cc3)cc2)S1` (stereo not drawn) [Example 16, trans-1,4-bis[p-[(2,4-dioxo-5-thiazolidinyl)methyl]phenoxy]-2-butene], in the series on KK mice, the “% Inhibition” value stood at 51%.
